Values of other authors as cited in US20240182984A1, “METHODS FOR ASSESSING PROLIFERATION AND ANTI-FOLATE THERAPEUTIC RESPONSE” (priority 2021, published 2024).

Tested on: bronchioid subtype of LUAD
Conditions: compared with other LUAD subtypes

Nc1nc2[nH]cc(CCc3ccc(C(=O)N[C@@H](CCC(=O)O)C(=O)O)cc3)c2c(=O)[nH]1 [pemetrexed]
sensitivity of the bronchioid subtype of LUAD (Group 1): more sensitive
